Results on 4 molecules are retold here after US10842800B2, “Concomitant administration of glucocorticoid receptor modulators and CYP3A inhibitors” (Corcept Therapeutics, Inc., priority 2017, dated 2020).

Holding throughout (assay type): in vivo, human
A short description of series [1]: Safety assessment: adverse events, laboratory tests, ECG (Example 1). Conditions: Example 1. How it is done: Subjects in both cohorts returned to the study center on Day 15 for safety monitoring, and completion of the Termination Visit procedures, followed by discharge from the study. Safety was assessed by spontaneously reported adverse events, physical examinations, and routine clinical laboratory tests. To the extent possible, any adverse events deemed study drug-related and that were ongoing at the time of discharge from the study were followed-up to resolution or until a determination is made that the unresolved event was stable.

A short description of series [2]: Ketoconazole PK after a 400 mg single dose on Day 8 of mifepristone 300 or 600 mg OD (Example 2). An excerpt: (§1) Subjects were discharged on Day 11.
(§2) Subjects were discharged on Day 11. Subjects in both cohorts returned to study center on Day 13 for safety monitoring, collection of the 120-hour PK draw, and completion of the Termination Visit procedures, followed by discharge from the study. To the extent possible, any adverse events deemed study drug-related and that were ongoing at the time of discharge from the study were followed-up to resolution or until a determination was made that the unresolved event was stable.
(§3) DURATION OF TREATMENT: Up to a total of 28 days, including up to 2 weeks screening, dosing on Days 1-8, safety observation, and PK sample collection through Day 13.
(§4) Descriptive statistics count, mean, median, standard deviation, minimum, maximum, and % coefficient of variation) were provided. Ketoconazole concentrations were listed and summarized. GM means of Cmax and total AUC were compared for the single dose in this study to the combined data of reported 400 mg single doses of ketoconazole of healthy subjects from the literature.

Series [3] in a line: Effect of co-administration with mifepristone on ketoconazole PK (Example 3). To be noted: Test: Day 17, 600 mg mifepristone OD + 200 mg ketoconazole BID; Reference: Day -1, 200 mg ketoconazole single dose. As to the method: (§5) A single dose of ketoconazole was administered on Day −1.
(§6) The study was a two period study design.

Series [4] is described as follows: Effect of ketoconazole 200 mg BID on PK of mifepristone 600 mg OD and metabolites, with food (Example 3). To be noted: for concentrations on Day 17 compared with Day 12: Day 17: mifepristone 600 mg daily + ketoconazole 200 mg twice daily, Day 12: mifepristone alone; for Ratio % Test/Reference, AUC0-24 (geometric mean ratio) / Ratio % Test/Reference, Cmax (geometric mean ratio): Test: Day 17, 600 mg mifepristone OD + 200 mg ketoconazole BID, Reference: Day 12, 600 mg mifepristone OD; for effect of co-administration with ketoconazole on exposure: mifepristone 600 mg OD + ketoconazole 200 mg BID. How it is done: as §5, §6

Series [5] in a line: Cross-study comparison of exposure to mifepristone and metabolites with historic 1200 mg OD mifepristone study (Example 3). To be noted: Test: present study Day 17, 600 mg mifepristone OD + 200 mg ketoconazole BID; Reference: historic study Day 7, 1200 mg mifepristone OD alone; after 34% fat meal.
The nature of series [6]: Effect of a 400 mg single dose of ketoconazole on PK of an 8-day regimen of 300 mg or 600 mg OD mifepristone, moderate fat breakfast (Example 2). Conditions: mifepristone 300 or 600 mg OD. As to the method: This was an open-label study in healthy male subjects. […] The 400 mg single dose of ketoconazole was given to all subjects on day 8.
METHODOLOGY: Twelve subjects were enrolled, six in Cohort 1 and 6 in Cohort 2.
as §1, §2
DIAGNOSIS AND MAIN […] FOR INCLUSION: Healthy male volunteers between the ages of 18 to 45 years of age with a body mass index (BMI) ranging between 19 and 32 kg/m2 and a weight of at least 60 kg (132 lbs) were enrolled. Subjects had no clinically significant abnormal findings on the physical examination, ECG, blood pressure, heart rate, medical history, or clinical laboratory results during screening. The QTc interval at screening was less than 450 msec.
as §3, §4

Setting [7] is: single 400 mg ketoconazole dose on Day 8.

SMILES strings stand for the structures. “Also recorded” adds a separate entry of the source.

`CC(=O)N1CCN(c2ccc(OCC3COC(Cn4ccnc4)(c4ccc(Cl)cc4Cl)O3)cc2)CC1` (centres unmarked) [Ketoconazole, 1-acetyl-4-[4-[[2-(2,4-dichlorophenyl)-2-[(1H-imidazol-1-yl)-methyl]-1,3-dioxolan-4-yl]methoxy]phenyl]piperazine]: the “TEAEs considered by the investigator to be related to the drug” value in series [1] is listed as “One TEAE of insomnia”. For the same molecule, the “ketoconazole half-life on either mifepristone regimen” value in series [2] (single 400 mg dose on Day 8, mifepristone 300 vs 600 mg OD) was “not appreciably different”. For the same molecule, in series [2] (setting [7]), the “ketoconazole AUCinf higher on 600 mg OD relative to 300 mg OD mifepristone regimen” value amounted to 36% and the “ketoconazole Cmax higher on 600 mg OD relative to 300 mg OD mifepristone regimen” value was determined as 37%. Moreover, in series [3], the “Ratio % Test/Reference, AUC (geometric mean ratio)” value amounted to 365.36% and the “Ratio % Test/Reference, Cmax (geometric mean ratio)” value (from here on “Ratio % Test/Reference, Cmax”) was 252.71%.
As for `CC#C[C@]1(O)CC[C@H]2[C@@H]3CCC4=CC(=O)CCC4=C3[C@@H](c3ccc(NC)cc3)C[C@@]21C` [RU 42633, (8S,11R,13S,14S,17S)-17-hydroxy-13-methyl-11-[4-(methylamino)phenyl]-17-prop-1-ynyl-1,2,6,7,8,11,12,14,15,16-decahydrocyclopenta[a]phenanthren-3-one], in series [4], the “concentrations on Day 17 compared with Day 12” value was “similar”; the “Ratio % Test/Reference, AUC0-24 (geometric mean ratio)” value is 102.33%; the “Ratio % Test/Reference, Cmax” value was 105.73%; the “effect of co-administration with ketoconazole on exposure” value (shortened to “effect of co-administration”) is recorded as “not affected by ketoconazole; also recorded: little change in exposure”. Besides, in series [5], the “Ratio % Test/Ref, AUC0-24 (geometric mean ratio)” value worked out at 91.34% and the “Ratio % Test/Ref, Cmax (geometric mean ratio)” value (“Ratio % Test/Ref, Cmax” for short) was found to be 96.31%.
`CN(C)c1ccc([C@H]2C[C@@]3(C)[C@@H](CC[C@@]3(O)C#CCO)[C@@H]3CCC4=CC(=O)CCC4=C32)cc1` [RU 42698, (8S,11R,13S,14S,17S)-11-[4-(dimethylamino)phenyl]-17-hydroxy-17-(3-hydroxyprop-1-ynyl)-13-methyl-1,2,6,7,8,11,12,14,15,16-decahydrocyclopenta[a]phenanthren-3-one]: in series [4], the “concentrations on Day 17 compared with Day 12” value was “higher”; the “Ratio % Test/Reference, AUC0-24 (geometric mean ratio)” value was 166.86%; the “Ratio % Test/Reference, Cmax” value worked out at 169.13%; the “effect of co-administration” value is recorded as “increased by ketoconazole”. For the same molecule, the “mean increase in exposure” value in series [4] (co-administration with ketoconazole 200 mg BID, mifepristone 600 mg OD) is on record as “approximately 70%”. The “mean metabolite exposure compared with mifepristone” value in series [6] is given as “lower”. In addition, in series [5], the “Ratio % Test/Ref, AUC0-24 (geometric mean ratio)” value turned out to be 118.18% and the “Ratio % Test/Ref, Cmax” value is 116.55%.
With `CC#C[C@]1(O)CC[C@H]2[C@@H]3CCC4=CC(=O)CCC4=C3[C@@H](c3ccc(N)cc3)C[C@@]21C` [RU 42848, (8S,11R,13S,14S,17S)-11-(4-aminophenyl)-17-hydroxy-13-methyl-17-prop-1-ynyl-1,2,6,7,8,11,12,14,15,16-decahydrocyclopenta[a]phenanthren-3-one], in series [4], the “concentrations on Day 17 compared with Day 12” value is listed as “similar”; the “Ratio % Test/Reference, AUC0-24 (geometric mean ratio)” value is listed as 94.88%; the “Ratio % Test/Reference, Cmax” value is reported as 95.48%; the “effect of co-administration” value is listed as “not affected by ketoconazole; also recorded: little change in exposure”. For the same molecule, in series [5], the “Ratio % Test/Ref, AUC0-24 (geometric mean ratio)” value is 81.43% and the “Ratio % Test/Ref, Cmax” value turned out to be 82.45%.
